Assay results from patent publication US9365588B2, “Benzoxazines as modulators of ion channels” (Vertex Pharmaceuticals Incorporated, priority 2011, dated 2016).

Target: human NaV 1.7 (Homo sapiens, UniProt Q15858)
Assay: E-VIPR optical membrane potential assay with electrical stimulation
Type: cell-based
Details: sodium channel inhibition; read-out: Binned Activity Data (IC50)
Excerpt: Assays for Detecting and Measuring NaV Inhibition Properties of Compound E-VIPR Optical Membrane Potential Assay Method with Electrical Stimulation
Sodium channels are voltage-dependent proteins that can be activated by inducing membrane voltage changes by applying electric fields. The electrical stimulation instrument and methods of use are described in Ion Channel Assay Methods PCT/US01/21652, herein incorporated by reference and are referred to as E-VIPR. The instrument comprises a microtiter plate handler, an optical system for exciting the coumarin dye while simultaneously recording the coumarin and oxonol emissions, a waveform generator, a current- or voltage-controlled amplifier, and a device for inserting electrodes in well. Under integrated computer control, this instrument passes user-programmed electrical stimulus protocols to cells within the wells of the microtiter plate.
24 hours before the assay on E-VIPR, HEK cells expressing human NaV subtype, like NaV 1.7, are seeded in 384-well poly-lysine coated plates at 15,000-20,000 cells per well. Other subtypes are performed in an analogous mode in a cell line expressing the NaV of interest. HEK cells are grown in media (exact composition is specific to each cell type and NaV subtype) supplemented with 10% FBS (Fetal Bovine Serum, qualified; GibcoBRL #16140-071) and 1% Pen-Strep (Penicillin-Streptomycin; GibcoBRL #15140-122). Cells are grown in vented cap flasks, in 90% humidity and 10% CO2, to 100% confluence. They are usually split by trypsinization 1:10 or 1:20, depending on scheduling needs, and grown for 2-3 days before the next split.
Bath1 buffer. Glucose 10 mM (1.8 g/L), Magnesium Chloride (Anhydrous), 1 mM (0.095 g/L), Calcium Chloride, 2 mM (0.222 g/L), HEPES 10 mM (2.38 g/L), Potassium Chloride, 4.5 mM (0.335 g/L), Sodium Chloride 160 mM (9.35 g/L).
Hexyl Dye Solution: Bath1 Buffer+0.5% β-cyclodextrin (make this prior to use, Sigma #C4767), 8 μM CC2-DMPE+2.5 μM DiSBAC6(3). To make the solution Add volume of 10% Pluronic F127 stock equal to volumes of CC2-DMPE+DiSBAC6(3). The order of preparation is first mix Pluronic and CC2-DMPE, then add DiSBAC6(3) while vortexing, then add Bath1+β-Cyclodextrin.
1) Pre-spot compounds (in neat DMSO) into compound plates. Vehicle control (neat DMSO), the positive control (20 mM DMSO stock tetracaine, 125 μM final in assay) and test compounds are added to each well at 160× desired final concentration in neat DMSO. Final compound plate volume will be 80 μL (80-fold intermediate dilution from 1 μL DMSO spot; 160-fold final dilution after transfer to cell plate). Final DMSO concentration for all wells in assay is 0.625%.
2) Prepare Hexyl Dye Solution.
3) Prepare cell plates. On the day of the assay, medium is aspirated and cells are washed three times with 100 μL of Bath1 Solution, maintaining 25 μL residual volume in each well.
4) Dispense 25 μL per well of Hexyl Dye Solution into cell plates. Incubate for 20-35 minutes at room temp or ambient conditions.
5) Dispense 80 μL per well of Bath1 into compound plates. Acid Yellow-17 (1 mM) is added and Potassium Chloride can be altered from 4.5 to 20 mM depending on the NaV subtype and assay sensitivity.
6) Wash cell plates three times with 100 μL per well of Bath1, leaving 25 μL of residual volume. Then transfer 25 uL per well from Compound Plates to Cell Plates. Incubate for 20-35 minutes at room temp/ambient condition
7) Read Plate on E-VIPR. Use the current-controlled amplifier to deliver stimulation wave pulses for typically 9 seconds and a scan rate of 400 Hz. A pre-stimulus recording is performed for 0.5 seconds to obtain the un-stimulated intensities baseline. The stimulatory waveform is applied for 9 seconds followed by 0.5 seconds of post-stimulation recording to examine the relaxation to the resting state. […]

Sequence of human NaV 1.7 (Q15858 whole entry): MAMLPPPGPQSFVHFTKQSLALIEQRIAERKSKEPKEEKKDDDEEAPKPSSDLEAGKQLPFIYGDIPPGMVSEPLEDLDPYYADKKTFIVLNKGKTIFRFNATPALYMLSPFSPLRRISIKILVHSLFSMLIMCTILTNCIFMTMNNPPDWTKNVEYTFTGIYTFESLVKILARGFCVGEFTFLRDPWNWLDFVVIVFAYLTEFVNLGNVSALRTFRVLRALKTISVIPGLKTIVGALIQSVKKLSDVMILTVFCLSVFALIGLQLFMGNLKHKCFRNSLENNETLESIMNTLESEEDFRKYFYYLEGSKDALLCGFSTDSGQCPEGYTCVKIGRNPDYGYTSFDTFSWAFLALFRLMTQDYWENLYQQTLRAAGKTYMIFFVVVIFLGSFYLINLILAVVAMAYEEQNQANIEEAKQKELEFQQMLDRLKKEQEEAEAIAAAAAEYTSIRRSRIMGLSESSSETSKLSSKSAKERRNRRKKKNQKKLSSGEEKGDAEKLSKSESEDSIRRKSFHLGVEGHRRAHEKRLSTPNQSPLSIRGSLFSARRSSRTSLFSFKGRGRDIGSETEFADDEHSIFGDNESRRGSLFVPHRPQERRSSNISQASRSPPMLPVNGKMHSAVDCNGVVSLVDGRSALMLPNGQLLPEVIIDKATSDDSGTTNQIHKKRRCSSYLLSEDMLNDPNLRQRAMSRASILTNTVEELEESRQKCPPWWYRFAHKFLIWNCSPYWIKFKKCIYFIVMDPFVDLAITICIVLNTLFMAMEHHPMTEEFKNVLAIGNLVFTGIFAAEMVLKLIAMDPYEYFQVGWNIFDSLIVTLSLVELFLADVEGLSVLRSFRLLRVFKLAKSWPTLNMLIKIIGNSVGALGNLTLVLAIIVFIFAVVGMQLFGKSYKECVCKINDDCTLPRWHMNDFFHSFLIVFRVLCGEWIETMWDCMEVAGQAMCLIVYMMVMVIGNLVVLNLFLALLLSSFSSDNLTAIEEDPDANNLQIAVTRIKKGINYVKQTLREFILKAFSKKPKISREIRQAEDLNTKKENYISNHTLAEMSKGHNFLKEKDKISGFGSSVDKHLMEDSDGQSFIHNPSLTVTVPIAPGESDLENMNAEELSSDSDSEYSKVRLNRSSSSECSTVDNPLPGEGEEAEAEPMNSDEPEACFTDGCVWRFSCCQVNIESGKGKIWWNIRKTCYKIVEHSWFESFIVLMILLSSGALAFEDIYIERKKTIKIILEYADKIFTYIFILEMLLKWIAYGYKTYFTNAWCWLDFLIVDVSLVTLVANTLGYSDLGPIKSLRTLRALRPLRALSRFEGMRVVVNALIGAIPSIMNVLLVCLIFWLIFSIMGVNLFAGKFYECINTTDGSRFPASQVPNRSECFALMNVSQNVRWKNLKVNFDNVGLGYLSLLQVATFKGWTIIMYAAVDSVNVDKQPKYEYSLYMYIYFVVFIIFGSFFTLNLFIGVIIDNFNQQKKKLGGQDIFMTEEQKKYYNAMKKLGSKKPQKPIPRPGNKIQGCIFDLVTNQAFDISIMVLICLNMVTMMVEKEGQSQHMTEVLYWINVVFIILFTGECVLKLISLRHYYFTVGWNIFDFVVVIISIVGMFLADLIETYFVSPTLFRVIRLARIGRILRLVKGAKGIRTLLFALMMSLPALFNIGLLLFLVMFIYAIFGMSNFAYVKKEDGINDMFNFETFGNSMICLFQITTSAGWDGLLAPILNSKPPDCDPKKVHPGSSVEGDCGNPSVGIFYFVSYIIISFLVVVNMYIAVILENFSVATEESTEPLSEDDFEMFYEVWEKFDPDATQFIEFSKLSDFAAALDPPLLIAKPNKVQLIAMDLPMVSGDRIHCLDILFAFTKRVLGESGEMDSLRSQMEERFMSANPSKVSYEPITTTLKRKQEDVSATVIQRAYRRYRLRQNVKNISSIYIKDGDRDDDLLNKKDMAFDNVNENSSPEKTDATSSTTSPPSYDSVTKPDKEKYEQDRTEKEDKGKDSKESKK

| IC50 | Structure (SMILES) |
| --- | --- |
| > 5 µM | N#Cc1ccc2n1-c1ccccc1OC21CCN(C(=O)c2ccc(OC(F)F)cc2)CC1 [Compound 2] |
| ≤ 2 µM | COc1c(CO)cccc1C(=O)N1CCC2(CC1)Oc1ccccc1-n1c(C#N)ccc12 [Compound 3] |
| ≤ 2 µM | CC(C)C(O)c1ccc(C(=O)N2CCC3(CC2)Oc2ccccc2-c2nn(C)cc23)cc1 (centres unmarked) [Compound 4] |
| ≤ 2 µM | Cc1cc(C(=O)N2CCC3(CC2)Oc2ccccc2-c2c3cnn2C)ccc1OC(C)C [Compound 5] |
| ≤ 2 µM | Cc1cc(C(=O)N2CCC3(CC2)Oc2cccc(C)c2-n2cccc23)ccc1OC(C)C [Compound 7] |
| 2 to 5 µM | Nc1nc2ccc(C(=O)N3CCC4(CC3)Oc3ccccc3-n3c(C(F)(F)F)ccc34)cc2s1 [Compound 8] |
| ≤ 2 µM | O=C(c1ccc(C2(O)COC2)cc1)N1CCC2(CC1)Oc1ccccc1-n1c(C(F)(F)F)ccc12 [Compound 9] |
| ≤ 2 µM | CC(C)CS(=O)(=O)c1ccc(C(=O)N2CCC3(CC2)Oc2ccccc2-n2c(C(F)(F)F)ccc23)cc1 [Compound 11] |
| 2 to 5 µM | CC(C)(C(=O)O)S(=O)(=O)c1ccc(C(=O)N2CCC3(CC2)Oc2ccccc2-n2c(C(F)(F)F)ccc23)cc1 [Compound 12] |
| ≤ 2 µM | CCOc1ccc(C(=O)N2CCC3(CC2)Oc2ccccc2-c2c3cnn2C)c(OCC)c1C [Compound 13] |
| ≤ 2 µM | COc1ccc2[nH]cc(C(=O)N3CCC4(CC3)Oc3ccccc3-c3c4cnn3C)c2c1 [Compound 14] |
| > 5 µM | O=C(c1ccc2ncsc2c1)N1CCC2(CC1)Oc1ccccc1-n1c(C(F)(F)F)ccc12 [Compound 15] |
| ≤ 2 µM | COc1ccc2c(c1)-c1c(cnn1C)C1(CCN(C(=O)c3ccccc3OC)CC1)O2 [Compound 16] |
| 2 to 5 µM | N#Cc1ccc2n1-c1ccccc1OC21CCN(C(=O)c2ccc(S(=O)(=O)NCCO)cc2)CC1 [Compound 17] |
| ≤ 2 µM | O=C(c1ccccc1OC(F)F)N1CCC2(CC1)Oc1cc(Cl)ccc1-n1cccc12 [Compound 21] |
| 2 to 5 µM | Cc1cc(C)c(C(=O)N2CCC3(CC2)Oc2cc(Cl)ccc2-n2cccc23)c(=O)[nH]1 [Compound 22] |
| ≤ 2 µM | COc1c(CO)cccc1C(=O)N1CCC2(CC1)Oc1ccccc1-n1c(C(F)(F)F)ccc12 [Compound 23] |
| ≤ 2 µM | COc1c(F)cccc1C(=O)N1CCC2(CC1)Oc1ccccc1-n1c(C#N)ccc12 [Compound 24] |
| ≤ 2 µM | Cn1ncc2c1-c1ccccc1OC21CCN(C(=O)c2ccc(OCCOC(F)(F)F)c(C#N)c2)CC1 [Compound 26] |
| ≤ 2 µM | Cc1ccc(C(=O)N2CCC3(CC2)Oc2ccccc2-n2cccc23)cc1Cl [Compound 27] |
| 2 to 5 µM | Cn1ncc2c1-c1ccccc1OC21CCN(C(=O)c2ccc(OC(C)(C)C)cc2)CC1 [Compound 28] |
| ≤ 2 µM | COc1cc(Cl)cc(C(=O)N2CCC3(CC2)Oc2cc(Cl)ccc2-n2cccc23)c1 [Compound 29] |
| ≤ 2 µM | COc1cc(C(=O)N2CCC3(CC2)Oc2cc(F)ccc2-n2cccc23)ccc1OC[C@@H](C)OC [Compound 30] |
| ≤ 2 µM | COC[C@@H](C)Oc1ccc(C(=O)N2CCC3(CC2)Oc2cc(Cl)ccc2-n2cccc23)cc1OC [Compound 31] |
| ≤ 2 µM | COc1cc(C(=O)N2CCC3(CC2)Oc2cc(F)ccc2-n2cccc23)ccc1O[C@@H]1CCC[C@H]1O [Compound 34] |
| ≤ 2 µM | CC(C)Oc1ccc(C(=O)N2CCC3(CC2)Oc2ccccc2-n2c(C(F)(F)F)ccc23)nc1 [Compound 36] |
| ≤ 2 µM | O=C(c1ccc(OC2COC2)c(C(F)(F)F)c1)N1CCC2(CC1)Oc1ccccc1-n1cccc12 [Compound 37] |
| ≤ 2 µM | Cc1cc(C(=O)N2CCC3(CC2)Oc2cc(F)ccc2-n2cccc23)ccc1OC(C)C [Compound 38] |

| IC50 | Structure (SMILES) |
| --- | --- |
| ≤ 2 µM | CC(C)c1ccc(C(=O)N2CCC3(CC2)Oc2cc(Cl)ccc2-n2cccc23)c(=O)[nH]1 [Compound 39] |
| 2 to 5 µM | CC(C)Oc1ccc(C(=O)N2CCC3(CC2)Oc2ccccc2-c2c3cnn2C)c(C#N)c1 [Compound 40] |
| ≤ 2 µM | COc1ccc(C(=O)N2CCC3(CC2)Oc2ccccc2-n2cccc23)cc1S(C)(=O)=O [Compound 41] |
| ≤ 2 µM | CC(C)Oc1ccc(C(=O)N2CCC3(CC2)Oc2ccccc2-n2c(C#N)ccc23)cc1F [Compound 42] |
| 2 to 5 µM | Cn1ncc2c1-c1ccccc1OC21CCN(C(=O)c2cccc3ncn(C)c23)CC1 [Compound 43] |
| ≤ 2 µM | Cc1c(F)cccc1C(=O)N1CCC2(CC1)Oc1ccccc1-c1c2cnn1C [Compound 44] |
| ≤ 2 µM | COc1cc(C(=O)N2CCC3(CC2)Oc2cc(Cl)ccc2-n2cccc23)ccc1C1(OC)COC1 [Compound 45] |
| > 5 µM | COc1cc(C(=O)N2CCC3(CC2)Oc2ccccc2-n2c([S+](C)[O-])ccc23)ccc1OC(C)(C)C (centres unmarked) [Compound 46] |
| ≤ 2 µM | COc1cc(C(=O)N2CCC3(CC2)Oc2ccccc2-c2c3cnn2C)ccc1OCC(C)C [Compound 47] |
| ≤ 2 µM | COc1cc(C(=O)N2CCC3(CC2)Oc2ccccc2-n2cccc23)ccc1OC[C@H](C)OC [Compound 48] |
| > 5 µM | CC(CO)NS(=O)(=O)c1ccc(C(=O)N2CCC3(CC2)Oc2ccccc2-n2c(C#N)ccc23)cc1 (centres unmarked) [Compound 49] |
| ≤ 2 µM | CC(C)C(O)c1ccc(C(=O)N2CCC3(CC2)Oc2ccccc2-n2c(C(F)(F)F)ccc23)cc1 (centres unmarked) [Compound 50] |
| ≤ 2 µM | CCn1ncc2c1-c1ccccc1OC21CCN(C(=O)c2ccc(OCCOC)c(OC)c2)CC1 [Compound 51] |
| ≤ 2 µM | Cc1cc(C(=O)N2CCC3(CC2)Oc2cc(F)ccc2-n2cccc23)ccc1C(C)(C)O [Compound 52] |
| ≤ 2 µM | Cc1cc(S(=O)(=O)C(C)C)ccc1C(=O)N1CCC2(CC1)Oc1ccccc1-c1c2cnn1C [Compound 53] |
| ≤ 2 µM | Cc1cc(C(=O)N2CCC3(CC2)Oc2ccccc2-n2c(C#N)ccc23)ccc1[C@](C)(O)CO [Compound 54] |
| ≤ 2 µM | CCc1ccc(C(=O)N2CCC3(CC2)Oc2cc(Cl)ccc2-n2cccc23)cc1C [Compound 55] |
| ≤ 2 µM | CC1Oc2c(C(=O)N3CCC4(CC3)Oc3ccccc3-c3c4cnn3C)cccc2C1C (centres unmarked) [Compound 56] |
| ≤ 2 µM | O=C(c1cc(Cl)cc(C(F)(F)F)c1)N1CCC2(CC1)Oc1cc(Cl)ccc1-n1cccc12 [Compound 57] |
| ≤ 2 µM | COc1cc(C(=O)N2CCC3(CC2)Oc2ccccc2-n2cccc23)ccc1C(C)(C)O [Compound 59] |
| ≤ 2 µM | COc1cc(F)cc(C(=O)N2CCC3(CC2)Oc2cc(Cl)ccc2-n2cccc23)c1 [Compound 60] |
| ≤ 2 µM | COCCOc1ccc(C(=O)N2CCC3(CC2)Oc2ccccc2-n2cccc23)cc1C#N [Compound 62] |
| ≤ 2 µM | COc1cc(C(=O)N2CCC3(CC2)Oc2cc(Cl)ccc2-n2cccc23)ccc1F [Compound 63] |
| ≤ 2 µM | CC(C)C(O)c1ccc(C(=O)N2CCC3(CC2)Oc2ccccc2-n2c(C#N)ccc23)cc1 (centres unmarked) [Compound 65] |
| ≤ 2 µM | CC(C)Oc1ccc(C(=O)N2CCC3(CC2)Oc2ccccc2-c2c3cnn2C)cc1CO [Compound 66] |
| ≤ 2 µM | Cc1cc(C(=O)N2CCC3(CC2)Oc2ccccc2-c2c3cnn2C)ccc1S(=O)(=O)C(C)(C)C [Compound 67] |
| ≤ 2 µM | CCCOc1ccc(C(=O)N2CCC3(CC2)Oc2ccccc2-n2cccc23)cc1C(F)(F)F [Compound 69] |

| Structure (SMILES) | IC50 |
| --- | --- |
| Cc1cc(C(=O)N2C3CCC2CC2(C3)Oc3ccccc3-n3cccc32)ccc1OC(C)C (centres unmarked) [Compound 32] | ≤ 2 µM |
